Laboratory results as given in patent US20220002700A1, “COMPUTATIONALLY-OPTIMIZED ACE2 PEPTIDES FOR COMPETITIVE INTERCEPTION OF SARS-CoV-2” (priority 2020, published 2022).
Where no end group is shown, it is not given here.

Key:
[1] = system: S protein-pseudotyped virus; type: cell-based, SARS-CoV-2
[2] = biological target: RBD-sfGFP (SARS-CoV-2 RBD fused to superfolder GFP) (Severe acute respiratory syndrome coronavirus 2, UniProt P0DTC2)

Substance	difference in pseudoviral infection competency with addition of exogenous peptide [1]	degradation in TRIM21 assay compared with other architectures [2]	reduction (depletion) of GFP+ cells [2]
23-mer (A2N) (QNKTFLDKFNHEAEDLFYQSSLA; also: fused to a dimerising Fc or GST)	Minimal difference	improving on both the sACE2 and 23-mer architecture as well as that of a previously optimized full- length mutant, sACE2v2.4	over 50%
QAKTFLDKFNHEAEDLFYQSSLA [sACE2 peptide variant 2]			~20%
